Laboratory results as given in ChEMBL document CHEMBL5725990, “Inhibitors of Bruton's tyrosine kinase” (2017).

Target: Tyrosine-protein kinase BTK (Homo sapiens, UniProt Q06187)
Test: Btk In Vitro Inhibitory Assay: Human Btk kinase (Genbank accession # NP_000052) was purified from insect cells as a full-length construct containing a N-terminal 6×-His tag. Btk kinase activity was determined using a radiometric filter binding assay. Measurements are performed in a low μL reaction volume 384-well assay plates. BTK enzyme (8 nM final in reaction), inhibitor (at requested doses), and 0.2 mg/mL peptide substrate (Poly-Glu-Tyr, 4:1 ratio) are incubated in a reaction buffer composed of 20 mM Hepes (pH 7.5), 10 mM MgCl2, 1 mM EGTA, 0.02% Brij35, 0.02 mg/ml BSA, 0.1 mM Na3VO4, 2 mM DTT, 1% DMSO for 15 min. followed by addition of 1 μM ATP to start the assay. Kinase reactions are carried out for 120 min. at room temperature. The reaction was stopped by spotting of reaction sample onto P81 cationic exchange paper (Whatman). Unbound phosphate was removed by extensive washing of filters in 0.75% Phosphoric acid.

Sequence of Tyrosine-protein kinase BTK (Q06187 whole entry): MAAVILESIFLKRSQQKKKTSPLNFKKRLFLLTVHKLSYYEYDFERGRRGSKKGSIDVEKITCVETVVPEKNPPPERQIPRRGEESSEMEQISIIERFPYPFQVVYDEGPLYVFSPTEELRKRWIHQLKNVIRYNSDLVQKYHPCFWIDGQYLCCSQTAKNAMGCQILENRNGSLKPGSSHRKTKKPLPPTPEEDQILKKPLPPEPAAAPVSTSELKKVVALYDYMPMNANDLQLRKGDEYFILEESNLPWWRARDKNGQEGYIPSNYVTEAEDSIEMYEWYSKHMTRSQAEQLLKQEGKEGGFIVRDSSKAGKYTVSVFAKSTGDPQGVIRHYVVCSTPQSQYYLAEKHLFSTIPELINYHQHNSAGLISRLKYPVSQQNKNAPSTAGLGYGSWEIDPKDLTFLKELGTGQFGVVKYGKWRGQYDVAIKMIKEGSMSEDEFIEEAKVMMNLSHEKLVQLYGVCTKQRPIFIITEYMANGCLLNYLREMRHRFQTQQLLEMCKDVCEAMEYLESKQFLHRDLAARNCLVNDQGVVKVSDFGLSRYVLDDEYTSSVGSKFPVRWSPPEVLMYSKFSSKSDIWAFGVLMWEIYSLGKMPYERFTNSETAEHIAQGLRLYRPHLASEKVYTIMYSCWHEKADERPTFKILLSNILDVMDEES

SMILES	IC50 [nM]
NC(=O)c1nnc(N2CCC[C@@H](NC(=O)c3ccc4nccn4c3)C2)nc1Nc1ccc(C(=O)N2CCOCC2)cc1	< 10
NC(=O)c1ncc(N2CCC[C@@H](N3CCN(c4cccc(Cl)c4)C3=O)C2)nc1Nc1ccc(C2CCN(C3CCCC3)CC2)cc1	< 10
